Test system: PCSK9
Test: PCSK9 secretion assay in HepG2 cells (PCSK9 ELISA)
Type: cell-based
Conditions: HepG2 cells, 16 hours incubation, at least 6 concentrations
Experimental: HepG2 cells (from ATCC, Catalog no. HB-8065) were maintained in DMEM (Invitrogen) supplemented with 10% fetal bovine serum (Invitrogen). The day prior to the PCSK9 assay, cells are seeded in 96-well collagen coated plates at 25,000 cells/well.
The compounds of the invention were stored at −20° C. until used. The test article compound was dissolved in 100% ethanol to a 50 mM stock solution. This was then diluted in FBS to a final concentration of 1 mM. This solution was placed in a sonicating water bath for 30 minutes. Subsequent dilutions were then made in FBS supplemented with an equivalent volume of ethanol and mixed by vortexing.
HepG2 cells were seeded onto a collagen coated 96-well plate (Becton Dickinson, Catalog no. 35-4407) the day prior to the assay, as described above. The next day, the cell medium was removed, washed once with 100 μL serum free DMEM to remove any residual PCSK9, and replaced with 90 μL of serum free DMEM. Ten microliters of each compound concentration prepared in FBS was then added. Each concentration of compound was tested in triplicate. The compound was incubated with the cells overnight for 16 hours. Following this incubation, 10 μL of AlamarBlue was added to each well and cells incubated for another 2 hours. The plates were then removed and AlamarBlue fluorescence was measured (excitation, 550 nm and […]) to assess cell viability. Cell culture supernatant was then diluted […] 1×RDSP Calibrator Diluent and PCSK9 ELISA was then performed with 50 μL of this diluted sample, as per the manufacturer's instructions. The ELISA was measured on a Victor X5 multilabel plate reader (PerkinElmer) at an absorbance of 450 nm with background correction measured at 550 nm (The PCSK9 Elisa kits can be purchased from R&D System, Catalog no. DPC900).
Alternatively, an IC50 could also be obtained when this type of assay was carried out using at least 6 different concentrations of the test compounds. Table 1 lists the IC50 values for the compounds tested in this assay.

| Compound | IC50 |
| --- | --- |
| CC/C=C\C/C=C\C/C=C\C/C=C\C/C=C\CCCC(=O)NCCNC(=O)c1cccnc1O [VI-3, 2-hydroxy-N-(2-((5Z,8Z,11Z,14Z,17Z)-icosa-5,8,11,14,17-pentaenamido)ethyl)nicotinamide] | > 50 µM |
| CC/C=C\C/C=C\C/C=C\C/C=C\C/C=C\CCCC(=O)NCCNC(=O)c1cccnc1-c1ccccc1 [VI-4, N-(2-((5Z,8Z,11Z,14Z,17Z)-icosa-5,8,11,14,17-pentaenamido)ethyl)-2-phenylnicotinamide] | > 50 µM |
| CC/C=C\C/C=C\C/C=C\C/C=C\C/C=C\CCCC(=O)NCCNC(=O)c1cncc(O)c1 [VI-5, 5-hydroxy-N-(2-((5Z,8Z,11Z,14Z,17Z)-icosa-5,8,11,14,17-pentaenamido)ethyl)nicotinamide] | 25 to 50 µM |
| CC/C=C\C/C=C\C/C=C\C/C=C\C/C=C\CCCC(=O)NCCNC(=O)c1cccnc1C [VI-6, N-(2-((5Z,8Z,11Z,14Z,17Z)-icosa-5,8,11,14,17-pentaenamido)ethyl)-2-methylnicotinamide] | 25 to 50 µM |
| CC/C=C\C/C=C\C/C=C\C/C=C\C/C=C\CCCC(=O)NCCNC(=O)c1cccnc1F [VI-7, 2-fluoro-N-(2-((5Z,8Z,11Z,14Z,17Z)-icosa-5,8,11,14,17-pentaenamido)ethyl)nicotinamide] | < 25 µM |
| CC/C=C\C/C=C\C/C=C\C/C=C\C/C=C\CCCC(=O)N1CCC(NC(=O)C2=CC(=O)C(C)(c3ccccc3)O2)CC1 (stereo not shown) [VII-1, N-(1-((5Z,8Z,11Z,14Z,17Z)-icosa-5,8,11,14,17-pentaenoyl)piperidin-4-yl)-5-methyl-4-oxo-5-phenyl-4,5-dihydrofuran-2-carboxamide] | < 25 µM |
| CC/C=C\C/C=C\C/C=C\C/C=C\C/C=C\CCCC(=O)N1CCC(CNC(=O)C2=CC(=O)C(C)(c3ccccc3)O2)CC1 (stereo not shown) [VII-2, N-((1-((5Z,8Z,11Z,14Z,17Z)-icosa-5,8,11,14,17-pentaenoyl)piperidin-4-yl)methyl)-5-methyl-4-oxo-5-phenyl-4,5-dihydrofuran-2-carboxamide] | < 25 µM |
| CC/C=C\C/C=C\C/C=C\C/C=C\C/C=C\CCCC(=O)N1CC[C@@H](NC(=O)C2=CC(=O)C(C)(c3ccccc3)O2)C1 (stereo partly drawn) [VII-3, N—((R)-1-((5Z,8Z,11Z,14Z,17Z)-icosa-5,8,11,14,17-pentaenoyl)pyrrolidin-3-yl)-5-methyl-4-oxo-5-phenyl-4,5-dihydrofuran-2-carboxamide] | < 25 µM |
| CC/C=C\C/C=C\C/C=C\C/C=C\C/C=C\CCCC(=O)N1CC[C@H](NC(=O)C2=CC(=O)C(C)(c3ccccc3)O2)C1 (stereo partly drawn) [VII-4, N—((S)-1-((5Z,8Z,11Z,14Z,17Z)-icosa-5,8,11,14,17-pentaenoyl)pyrrolidin-3-yl)-5-methyl-4-oxo-5-phenyl-4,5-dihydrofuran-2-carboxamide] | < 25 µM |
| CC/C=C\C/C=C\C/C=C\C/C=C\C/C=C\CCCC(=O)N1CC[C@H](CNC(=O)C2=CC(=O)C(C)(c3ccccc3)O2)C1 (stereo partly drawn) [VII-5, N—(((R)-1-((5Z,8Z,11Z,14Z,17Z)-icosa-5,8,11,14,17-pentaenoyl)pyrrolidin-3-yl)methyl)-5-methyl-4-oxo-5-phenyl-4,5-dihydrofuran-2-carboxamide] | < 25 µM |
| CC/C=C\C/C=C\C/C=C\C/C=C\C/C=C\CCCC(=O)N1CC[C@@H](CNC(=O)C2=CC(=O)C(C)(c3ccccc3)O2)C1 (stereo partly drawn) [VII-6, N—(((S)-1-((5Z,8Z,11Z,14Z,17Z)-icosa-5,8,11,14,17-pentaenoyl)pyrrolidin-3-yl)methyl)-5-methyl-4-oxo-5-phenyl-4,5-dihydrofuran-2-carboxamide] | < 25 µM |
| CC/C=C\C/C=C\C/C=C\C/C=C\C/C=C\CCCC(=O)N1CCC(N(C)C(=O)C2=CC(=O)C(C)(c3ccccc3)O2)CC1 (stereo not shown) [VII-7, N-(1-((5Z,8Z,11Z,14Z,17Z)-icosa-5,8,11,14,17-pentaenoyl)piperidin-4-yl)-N,5-dimethyl-4-oxo-5-phenyl-4,5-dihydrofuran-2-carboxamide] | < 25 µM |
| CC/C=C\C/C=C\C/C=C\C/C=C\C/C=C\CCCC(=O)N1CCC(CN(C)C(=O)C2=CC(=O)C(C)(c3ccccc3)O2)CC1 (stereo not shown) [VII-8, N-((1-((5Z,8Z,11Z,14Z,17Z)-icosa-5,8,11,14,17-pentaenoyl)piperidin-4-yl)methyl)-N,5-dimethyl-4-oxo-5-phenyl-4,5-dihydrofuran-2-carboxamide] | < 25 µM |
| CC/C=C\C/C=C\C/C=C\C/C=C\C/C=C\CCCC(=O)N1CC[C@H](N(C)C(=O)C2=CC(=O)C(C)(c3ccccc3)O2)C1 (stereo partly drawn) [VII-9, N—((S)-1-((5Z,8Z,11Z,14Z,17Z)-icosa-5,8,11,14,17-pentaenoyl)pyrrolidin-3-yl)-N,5-dimethyl-4-oxo-5-phenyl-4,5-dihydrofuran-2-carboxamide] | 25 to 50 µM |
| CC/C=C\C/C=C\C/C=C\C/C=C\C/C=C\CCCC(=O)N1CCC(CNC(=O)c2cnc(C)c[n+]2[O-])CC1 [VII-10, 2-(((1-((5Z,8Z,11Z,14Z,17Z)-icosa-5,8,11,14,17-pentaenoyl)piperidin-4-yl)methyl)carbamoyl)-5-methylpyrazine 1-oxide] | < 25 µM |
| CC/C=C\C/C=C\C/C=C\C/C=C\C/C=C\CCCC(=O)N1CC[C@@H](NC(=O)c2cnc(C)c[n+]2[O-])C1 [VII-11, 2-(((R)-1-((5Z,8Z,11Z,14Z,17Z)-icosa-5,8,11,14,17-pentaenoyl)pyrrolidin-3-yl)carbamoyl)-5-methylpyrazine 1-oxide] | > 50 µM |
| CC/C=C\C/C=C\C/C=C\C/C=C\C/C=C\CCCC(=O)N1CC[C@H](NC(=O)c2cnc(C)c[n+]2[O-])C1 [VII-12, 2-(((S)-1-((5Z,8Z,11Z,14Z,17Z)-icosa-5,8,11,14,17-pentaenoyl)pyrrolidin-3-yl)carbamoyl)-5-methylpyrazine 1-oxide] | > 50 µM |
| CC/C=C\C/C=C\C/C=C\C/C=C\C/C=C\CCCC(=O)N1CCC[C@@H]1CNC(=O)c1cnc(C)c[n+]1[O-] [VII-13, 2-((((R)-1-((5Z,8Z,11Z,14Z,17Z)-icosa-5,8,11,14,17-pentaenoyl)pyrrolidin-2-yl)methyl)carbamoyl)-5-methylpyrazine 1-oxide] | < 25 µM |
| CC/C=C\C/C=C\C/C=C\C/C=C\C/C=C\CCCC(=O)N1CCC[C@H]1CNC(=O)c1cnc(C)c[n+]1[O-] [VII-14, 2-((((S)-1-((5Z,8Z,11Z,14Z,17Z)-icosa-5,8,11,14,17-pentaenoyl)pyrrolidin-2-yl)methyl)carbamoyl)-5-methylpyrazine 1-oxide] | 25 to 50 µM |
| CC/C=C\C/C=C\C/C=C\C/C=C\C/C=C\CCCC(=O)N1CCC(NC(=O)c2c[n+]([O-])cc(C)n2)CC1 [VII-15, 3-((1-((5Z,8Z,11Z,14Z,17Z)-icosa-5,8,11,14,17-pentaenoyl)piperidin-4-yl)carbamoyl)-5-methylpyrazine 1-oxide] | < 25 µM |
| CC/C=C\C/C=C\C/C=C\C/C=C\C/C=C\CCCC(=O)N1CCC(CN(C)C(=O)c2cnc(C)c[n+]2[O-])CC1 [VII-16, 2-(((1-((5Z,8Z,11Z,14Z,17Z)-icosa-5,8,11,14,17-pentaenoyl)piperidin-4-yl)methyl)(methyl)carbamoyl)-5-methylpyrazine 1-oxide] | 25 to 50 µM |
| CC/C=C\C/C=C\C/C=C\C/C=C\C/C=C\CCCC(=O)N1CC[C@H](N(C)C(=O)c2cnc(C)c[n+]2[O-])C1 [VII-17, 2-(((S)-1-((5Z,8Z,11Z,14Z,17Z)-icosa-5,8,11,14,17-pentaenoyl)pyrrolidin-3-yl)(methyl)carbamoyl)-5-methylpyrazine 1-oxide] | < 25 µM |

— US20140093513A1, “METHODS OF LOWERING PROPROTEIN CONVERSATE SUBTILISIN/KEXIN TYPE 9 (PCSK9)” (Catabasis Pharmaceuticals, Inc., priority 2012, published 2014)
